Columns and labels:
Assay in all cases: relative viability (nuclei count vs DMSO), 5 days (fraction); higher = more cells survive
Doramapimod + Linsitinib = compound: Cc1ccc(-n2nc(C(C)(C)C)cc2NC(=O)Nc2ccc(OCCN3CCOCC3)c3ccccc23)cc1 [Doramapimod] + C[C@]1(O)C[C@@H](c2nc(-c3ccc4ccc(-c5ccccc5)nc4c3)c3c(N)nccn32)C1 [Linsitinib] (partner 1 µM)
Method in brief: (§1)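 Lung cancer cell lines were seeded in 1536-well plates and dosed by pin tool the next day, with either a single drug or a fixed anchor-drug dose combined with five library-drug doses (not always all listed) spaced in √10 steps. Five days later, one step fixed the cells and stained their nuclei (final 0.05% Triton X-100, 1% formaldehyde, 1 ug/ml Hoechst), and nuclei were counted on 4× images. Relative viability is the nuclei count in treated wells divided by the count in vehicle wells, and each value is the median of duplicate plates.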

[1] = compound: Cc1ccc(-n2nc(C(C)(C)C)cc2NC(=O)Nc2ccc(OCCN3CCOCC3)c3ccccc23)cc1 [Doramapimod] + CC(=O)c1c(C)c2cnc(Nc3ccc(N4CCNCC4)cn3)nc2n(C2CCCC2)c1=O [Palbociclib] (partner 0.5 µM)
Method in brief: as §1

RAF265 + Linsitinib = compound: Cn1c(Nc2ccc(C(F)(F)F)cc2)nc2cc(Oc3ccnc(-c4ncc(C(F)(F)F)[nH]4)c3)ccc21 [RAF265] + C[C@]1(O)C[C@@H](c2nc(-c3ccc4ccc(-c5ccccc5)nc4c3)c3c(N)nccn32)C1 [Linsitinib] (partner 1 µM)
Method in brief: as §1

Doramapimod + Vorinostat = compound: Cc1ccc(-n2nc(C(C)(C)C)cc2NC(=O)Nc2ccc(OCCN3CCOCC3)c3ccccc23)cc1 [Doramapimod] + O=C(CCCCCCC(=O)Nc1ccccc1)NO [Vorinostat] (partner 1 µM)
Method in brief: as §1

Cell Line | relative viability (Doramapimod + Linsitinib; first compound 0.02 µM) | relative viability (Doramapimod + Linsitinib; first compound 0.06325 µM) | relative viability (Doramapimod + Linsitinib; first compound 0.2 µM) | relative viability (Doramapimod + Linsitinib; first compound 0.6325 µM) | relative viability (Doramapimod + Linsitinib; first compound 2 µM) | relative viability ([1]; first compound 0.02 µM) | relative viability ([1]; first compound 0.06325 µM) | relative viability ([1]; first compound 0.2 µM) | relative viability ([1]; first compound 0.6325 µM) | relative viability ([1]; first compound 2 µM) | relative viability (RAF265 + Linsitinib; first compound 0.01 µM) | relative viability (RAF265 + Linsitinib; first compound 0.03162 µM) | relative viability (RAF265 + Linsitinib; first compound 0.1 µM) | relative viability (RAF265 + Linsitinib; first compound 0.3162 µM) | relative viability (RAF265 + Linsitinib; first compound 1 µM) | relative viability (Doramapimod + Vorinostat; first compound 0.02 µM) | relative viability (Doramapimod + Vorinostat; first compound 0.06325 µM) | relative viability (Doramapimod + Vorinostat; first compound 0.2 µM) | relative viability (Doramapimod + Vorinostat; first compound 0.6325 µM) | relative viability (Doramapimod + Vorinostat; first compound 2 µM)
NCI-H1666 | 0.871 | 0.883 | 0.847 | 0.781 | 0.738 | 0.734 | 0.641 | 0.69 | 0.704 | 0.613 | 0.894 | 0.923 | 0.888 | 0.854 | 0.565 | 1.05 | 0.986 | 1.03 | 1.14 | 0.944
EPLC-272H | 1.1 | 1.02 | 1.07 | 1.23 | 1.01 | 0.356 | 0.342 | 0.345 |  | 0.286 | 1.08 | 1.02 | 1.03 | 0.608 | 0.431 | 0.494 | 0.529 | 0.266 | 0.528 | 0.41
NCI-H1651 | 0.92 | 0.844 | 0.923 | 0.977 | 0.917 | 0.478 | 0.523 | 0.47 | 0.511 | 0.516 | 0.999 | 0.976 | 1.07 | 0.74 | 0.737 | 0.514 | 0.604 | 0.602 | 0.623 | 0.552
HCC-44 | 0.662 | 0.669 | 0.675 | 0.634 | 0.626 | 0.96 | 1 | 0.97 | 0.904 | 0.891 | 0.643 | 0.617 | 0.667 | 0.661 | 0.64 | 1.17 | 1.18 | 1.14 | 1.14 | 1.2
SW 1573 | 0.722 | 0.74 | 0.8 | 0.739 | 0.736 | 0.449 | 0.358 | 0.298 | 0.354 | 0.313 | 0.767 | 0.744 | 0.796 | 0.612 | 0.508 | 0.9 | 0.549 | 0.581 | 0.791 | 0.539
PC-3 [JPC-3] | 1.07 | 0.987 | 0.987 | 1.06 | 0.998 | 0.588 | 0.549 | 0.549 | 0.571 | 0.565 | 1.03 | 0.911 | 1.04 | 0.416 | 0.722 | 0.967 | 1.39 | 1.22 | 0.564 | 0.744
LOU-NH91 | 0.967 | 0.91 | 0.972 | 1.06 | 0.686 | 0.531 | 0.564 | 0.535 | 0.528 | 0.509 | 1.03 | 0.818 | 1.03 | 0.599 | 0.644 | 0.966 | 0.944 | 0.945 | 0.847 | 0.632
PC-14 | 1.01 | 1.03 | 0.981 | 0.931 | 0.9 | 0.552 | 0.594 | 0.487 | 0.552 | 0.508 | 1.02 | 0.968 | 1.02 |  | 0.788 | 0.802 | 0.751 | 0.727 | 0.898 | 0.578
NCI-H2087 | 0.976 | 1.13 | 0.939 | 0.962 | 0.951 | 0.237 | 0.215 | 0.293 | 0.27 | 0.219 | 0.827 | 0.844 | 0.9 | 0.699 | 0.587 | 0.932 | 0.764 | 0.668 | 0.718 | 0.669
